The compounds below were run against Recombinant human BRD4(1-477) (Homo sapiens (Human), UniProt O60885) (assay: BRD4 TR-FRET biochemical IC50 assay). Details: BRD4 IC50, TR-FRET, tetra-acetylated histone peptide.
Format: binding

| Compound | IC50 [nM] |
| --- | --- |
| Cc1noc(C)c1-c1ccc2c(c1)C(O)(c1ccsc1)C(=O)N2 (single isomer, unassigned) [Compound 4.1a, 5-(3,5-Dimethylisoxazol-4-yl)-3-hydroxy-3-(thiophen-3-yl)indolin-2-one] | 4900 |

Same assay, conditions: TR-FRET, tetra-acetylated histone peptide; read-out: BRD4 IC50

| Compound | IC50 [nM] |
| --- | --- |
| Cc1noc(C)c1-c1ccc2c(c1)C(O)(c1ccccc1)C(=O)N2 (single isomer, unassigned) [Compound 1.1b, 5-(3,5-dimethylisoxazol-4-yl)-3-hydroxy-3-phenylindolin-2-one] | 7000 |
| Cc1noc(C)c1-c1ccc2c(c1)C(O)(C1CCCCC1=O)C(=O)N2 (single isomer, unassigned) [Compound 1.30b, 5-(3,5-Dimethylisoxazol-4-yl)-3-hydroxy-3-(2-oxocyclohexyl)indolin-2-one] | 650 |
| Cc1noc(C)c1-c1ccc2c(c1)C(N[C@@H](CO)c1ccccc1)(c1ccccc1)C(=O)N2 (single isomer, unassigned) [Compound 2.7a] | > 10000 |
| Cc1noc(C)c1-c1ccc2c(c1)C(N[C@@H](CO)c1ccccc1)(c1ccccc1)C(=O)N2 (single isomer, unassigned) [Compound 2.7b] | 810 |
| Cc1noc(C)c1-c1ccc2c(c1)C(N[C@H](CO)c1ccccc1)(c1ccccc1)C(=O)N2 (single isomer, unassigned) [Compound 2.8a] | 510 |
| Cc1noc(C)c1-c1ccc2c(c1)C(N[C@H](CO)c1ccccc1)(c1ccccc1)C(=O)N2 (single isomer, unassigned) [Compound 2.8b] | 2200 |
| Cc1noc(C)c1-c1ccc2c(c1)C(N[C@@H](CO)C(C)C)(c1ccccc1)C(=O)N2 (single isomer, unassigned) [Compound 2.11a] | 3600 |
| Cc1noc(C)c1-c1ccc2c(c1)C(N[C@H](CO)C(C)C)(c1ccccc1)C(=O)N2 (single isomer, unassigned) [Compound 2.12b] | 3400 |
| Cc1noc(C)c1-c1ccc2c(c1)C(NC[C@@H](C)O)(c1ccccc1)C(=O)N2 (single isomer, unassigned) [Compound 2.13a] | 710 |
| Cc1noc(C)c1-c1ccc2c(c1)C(NC[C@H](C)O)(c1ccccc1)C(=O)N2 (single isomer, unassigned) [Compound 2.14b] | 610 |
| Cc1noc(C)c1-c1ccc2c(c1)C(N[C@H](CO)C(C)C)(C1CCCCC1)C(=O)N2 (single isomer, unassigned) [Compound 2.19a] | > 10000 |
| Cc1noc(C)c1-c1ccc2c(c1)C(N[C@@H](CO)C(C)C)(C1CCCCC1)C(=O)N2 (single isomer, unassigned) [Compound 2.20a] | 5100 |
| Cc1noc(C)c1-c1ccc2c(c1)C(N)(C1CCCCC1)C(=O)N2 (single isomer, unassigned) [Compound 2.37b, 3-Amino-3-cyclohexyl-5-(3,5-dimethylisoxazol-4-yl)indolin-2-one] | 1100 |
| COC(=O)[C@@H]1C[C@@H](O)CN1C1(c2ccccc2)C(=O)Nc2ccc(-c3c(C)noc3C)cc21 (single isomer, unassigned) [Compound 2.50b] | 850 |
| Cc1noc(C)c1-c1ccc2c(c1)C(c1ccccc1)(N1C[C@@H](O)C[C@H]1CO)C(=O)N2 (single isomer, unassigned) [Compound 2.51a] | 1400 |
| Cc1noc(C)c1-c1ccc2c(c1)C(c1ccccc1)(N1C[C@@H](O)C[C@H]1CO)C(=O)N2 (single isomer, unassigned) [Compound 2.51b] | 67 |
| Cc1noc(C)c1-c1ccc2c(c1)C(N[C@H](CO)Cc1cnc[nH]1)(c1ccccc1)C(=O)N2 (single isomer, unassigned) [Compound 2.57a, 5-(3,5-Dimethylisoxazol-4-yl)-3-((s)-1-hydroxy-3-(1h-imidazol-5-yl)propan-2-ylamino)-3-phenylindolin-2-one] | 410 |
| Cc1noc(C)c1-c1ccc2c(c1)C(N[C@H](CO)Cc1cnc[nH]1)(c1ccccc1)C(=O)N2 (single isomer, unassigned) [Compound 2.57b, 5-(3,5-Dimethylisoxazol-4-yl)-3-((s)-1-hydroxy-3-(1h-imidazol-5-yl)propan-2-ylamino)-3-phenylindolin-2-one] | 41 |
| Cc1noc(C)c1-c1ccc2c(c1)C(N)(c1ccc(F)cc1)C(=O)N2 (single isomer, unassigned) [Compound 2.59a, 3-amino-5-(3,5-dimethylisoxazol-4-yl)-3-(4-fluorophenyl)indolin-2-one] | 4100 |
| Cc1noc(C)c1-c1ccc2c(c1)C(N)(c1ccc(F)cc1)C(=O)N2 (single isomer, unassigned) [Compound 2.59b, 3-amino-5-(3,5-dimethylisoxazol-4-yl)-3-(4-fluorophenyl)indolin-2-one] | 36 |
| COc1ccc(C2(O)C(=O)Nc3ccc(-c4c(C)noc4C)cc32)cc1OC (centres unmarked) [Compound 1.10, 3-(3,4-dimethoxyphenyl)-5-(3,5-dimethylisoxazol-4-yl)-3-hydroxyindolin-2-one] | 1300 |
| Cc1noc(C)c1-c1ccc2c(c1)C(O)(c1cccc3ccccc13)C(=O)N2 (centres unmarked) [Compound 1.11, 5-(3,5-dimethylisoxazol-4-yl)-3-hydroxy-3-(naphthalen-1-yl)indolin-2-one] | 2500 |

| Compound | IC50 [nM] |
| --- | --- |
| Cc1noc(C)c1-c1ccc2c(c1)C(O)(C#Cc1ccccc1)C(=O)N2 (centres unmarked) [Compound 1.12, 5-(3,5-dimethylisoxazol-4-yl)-3-hydroxy-3-(phenylethynyl)indolin-2-one] | 2300 |
| CCC1(O)C(=O)Nc2ccc(-c3c(C)noc3C)cc21 (centres unmarked) [Compound 1.20, 5-(3,5-dimethylisoxazol-4-yl)-3-ethyl-3-hydroxyindolin-2-one] | 2300 |
| C#CC1(O)C(=O)Nc2ccc(-c3c(C)noc3C)cc21 (centres unmarked) [Compound 1.21, 5-(3,5-dimethylisoxazol-4-yl)-3-ethynyl-3-hydroxyindolin-2-one] | 1200 |
| Cc1noc(C)c1-c1ccc2c(c1)C(O)(C(C)(C)C)C(=O)N2 (centres unmarked) [Compound 1.26, 3-tert-butyl-5-(3,5-dimethylisoxazol-4-yl)-3-hydroxyindolin-2-one] | 3200 |
| Cc1noc(C)c1-c1ccc2c(c1)C(O)(C(C)C)C(=O)N2 (centres unmarked) [Compound 1.27, 5-(3,5-dimethylisoxazol-4-yl)-3-hydroxy-3-isopropylindolin-2-one] | 2800 |
| C=C(C)CC1(O)C(=O)Nc2ccc(-c3c(C)noc3C)cc21 (centres unmarked) [Compound 1.28, 5-(3,5-dimethylisoxazol-4-yl)-3-hydroxy-2-(2-methylallyl)indolin-2-one] | 3900 |
| Cc1noc(C)c1-c1ccc2c(c1)C(O)(CCCc1ccccc1)C(=O)N2 (centres unmarked) [Compound 1.29, 5-(3,5-dimethylisoxazol-4-yl)-3-hydroxy-3-(3-phenylpropyl)indolin-2-one] | 1600 |
| CC(=O)OC1(c2ccccc2)C(=O)Nc2ccc(-c3c(C)noc3C)cc21 (centres unmarked) [Compound 1.34, 5-(3,5-Dimethylisoxazol-4-yl)-2-oxo-3-phenylindolin-3-yl acetate] | 150 |
| Cc1noc(C)c1-c1ccc2c(c1)C(NCCC(C)C)(C1CCCCC1)C(=O)N2 (centres unmarked) [Compound 2.25, 3-cyclohexyl-5-(3,5-dimethylisoxazol-4-yl)-3-(isopentylamino)indolin-2-one] | 3700 |
| Cc1noc(C)c1-c1ccc2c(c1)C(C1CCCCC1)(N1CCC[C@@H](O)C1)C(=O)N2 (stereo partly drawn) [Compound 2.30, 3-cyclohexyl-5-(3,5-dimethylisoxazol-4-yl)-3-((R)-3-hydroxypiperidin-1-yl)indolin-2-one] | 61 |
| Cc1noc(C)c1-c1ccc2c(c1)C(C1CCCCC1)(N1CCC(O)CC1)C(=O)N2 (centres unmarked) [Compound 2.31, 3-cyclohexyl-5-(3,5-dimethylisoxazol-4-yl)-3-(4-hydroxypiperidin-1-yl)indolin-2-one] | 37 |
| Cc1noc(C)c1-c1ccc2c(c1)C(C1CCCCC1)(N1CCCC(O)C1)C(=O)N2 (centres unmarked) [Compound 2.32, 3-cyclohexyl-5-(3,5-dimethylisoxazol-4-yl)-3-(3-hydroxypiperidin-1-yl)indolin-2-one] | 60 |
| Cc1noc(C)c1-c1ccc2c(c1)C(C1CCCCC1)(N1CC(O)C1)C(=O)N2 (centres unmarked) [Compound 2.33, 3-cyclohexyl-5-(3,5-dimethylisoxazol-4-yl)-3-(3-hydroxyazetidin-1-yl)indolin-2-one] | 120 |
| Cc1noc(C)c1-c1ccc2c(c1)C(N)(C1CCCCC1)C(=O)N2 (centres unmarked) [Compound 2.37, 3-amino-3-cyclohexyl-5-(3,5-dimethylisoxazol-4-yl)indolin-2-one] | 93 |
| Cc1noc(C)c1-c1ccc2c(c1)[C@@](N)(C1CCCCC1)C(=O)N2 [Compound 2.37a, (S)-3-amino-3-cyclohexyl-5-(3,5-dimethylisoxazol-4-yl)indolin-2-one] | 54 |
| Cc1noc(C)c1-c1ccc2c(c1)C(c1ccccc1)(N1CC[C@@H](NC(=O)OC(C)(C)C)C1)C(=O)N2 (some centres unmarked) [Compound 2.41, Tert-butyl (3r)-1-(5-(3,5-dimethylisoxazol-4-yl)-2-oxo-3-phenylindolin-3-yl)pyrrolidin-3-ylcarbamate] | 440 |
| Cc1noc(C)c1-c1ccc2c(c1)C(c1ccccc1)(N1CC[C@@H](N)C1)C(=O)N2 (stereo partly drawn) [Compound 2.42, 3-((R)-3-aminopyrrolidin-1-yl)-5-(3,5-dimethylisoxazol-4-yl)-3-phenylindolin-2-one] | 27 |
| Cc1noc(C)c1-c1ccc2c(c1)C(c1ccccc1)(N1CCC[C@@H](NC(=O)OC(C)(C)C)C1)C(=O)N2 (some centres unmarked) [Compound 2.43] | 510 |
| Cc1noc(C)c1-c1ccc2c(c1)C(c1ccccc1)(N1CCC[C@H](NC(=O)OC(C)(C)C)C1)C(=O)N2 (some centres unmarked) [Compound 2.44, Tert-butyl (3s)-1-(5-(3,5-dimethylisoxazol-4-yl)-2-oxo-3-phenylindolin-3-yl)piperidin-3-ylcarbamate] | 1100 |
| Cc1noc(C)c1-c1ccc2c(c1)C(c1ccccc1)(N1CCC[C@@H](N)C1)C(=O)N2 (stereo partly drawn) [Compound 2.45, 3-((R)-3-aminopiperidin-1-yl)-5-(3,5-dimethylisoxazol-4-yl)-3-phenylindolin-2-one] | 26 |
| CCOC(=O)CN1CCN(C2(c3ccccc3)C(=O)Nc3ccc(-c4c(C)noc4C)cc32)CC1 (centres unmarked) [Compound 2.47, Ethyl 2-(4-(5-(3,5-dimethylisoxazol-4-yl)-2-oxo-3-phenylindolin-3-yl)piperazin-1-yl)acetate] | 54 |

Reference: patent publication US9393232B2 (BeiGene, Ltd., priority 2013, dated 2016)
